test system: MCF7; assay: Antiproliferative activity against human MCF7 cells after 48 hrs by MTT assay; assay type: functional, cell-based; conditions: MCF7, 48 h

SMILES	IC50
COc1ccc(-n2nncc2CN2C(=O)C3(C(C#N)=C(N)Oc4c(N)cc5nc6ccccc6nc5c43)c3ccccc32)cc1 (stereo unspecified)	> 50 µM
CCOc1ccccc1-n1nncc1CN1C(=O)C2(C(C#N)=C(N)Oc3c2c2nc4ccccc4nc2c2ccccc32)c2ccccc21 (stereo unspecified)	> 50 µM
CCOc1ccc(-n2nncc2CN2C(=O)C3(C(C#N)=C(N)Oc4c(N)cc5nc6ccccc6nc5c43)c3ccccc32)cc1 (stereo unspecified)	26.8 µM
Cc1cc(C)c(-n2nncc2CN2C(=O)C3(C(C#N)=C(N)Oc4c(N)cc5nc6ccccc6nc5c43)c3ccccc32)c(C)c1 (stereo unspecified)	> 50 µM
N#CC1=C(N)Oc2c(N)cc3nc4ccccc4nc3c2C12C(=O)N(Cc1cnnn1-c1ccc(F)c(Cl)c1)c1ccccc12 (stereo unspecified)	17.8 µM

Second part, the compound after the results:

IC50	SMILES
> 50 µM	Cc1cccc(-n2nncc2CN2C(=O)C3(C(C#N)=C(N)Oc4c3c3nc5ccccc5nc3c3ccccc43)c3ccccc32)c1 (stereo unspecified)
> 50 µM	N#CC1=C(N)Oc2c(c3nc4ccccc4nc3c3ccccc23)C12C(=O)N(Cc1cnnn1-c1cc(Cl)ccc1Cl)c1ccccc12 (stereo unspecified)
> 50 µM	Cc1ccccc1-n1nncc1CN1C(=O)C2(C(C#N)=C(N)Oc3c2c2nc4ccccc4nc2c2ccccc32)c2ccccc21 (stereo unspecified)
42.5 µM	N#CC1=C(N)Oc2c(c3nc4ccccc4nc3c3ccccc23)C12C(=O)N(Cc1cnnn1-c1cccc(S(N)(=O)=O)c1)c1ccccc12 (stereo unspecified)
> 50 µM	N#CC1=C(N)Oc2c(c3nc4ccccc4nc3c3ccccc23)C12C(=O)N(Cc1cnnn1-c1ccc(N)cc1)c1ccccc12 (stereo unspecified)
> 50 µM	N#CC1=C(N)Oc2c(c3nc4ccccc4nc3c3ccccc23)C12C(=O)N(Cc1cnnn1-c1ccc([N+](=O)[O-])cc1)c1ccccc12 (stereo unspecified)

test system: L02; assay: Antiproliferative activity against human L02 cells after 48 hrs by MTT assay; assay type: cell-based; conditions: L02, 48 h

SMILES	IC50
Cc1cccc(-n2nncc2CN2C(=O)C3(C(C#N)=C(N)Oc4c3c3nc5ccccc5nc3c3ccccc43)c3ccccc32)c1 (stereo unspecified)	> 50 µM
COc1ccc(-n2nncc2CN2C(=O)C3(C(C#N)=C(N)Oc4c(N)cc5nc6ccccc6nc5c43)c3ccccc32)cc1 (stereo unspecified)	> 50 µM
CCOc1ccccc1-n1nncc1CN1C(=O)C2(C(C#N)=C(N)Oc3c2c2nc4ccccc4nc2c2ccccc32)c2ccccc21 (stereo unspecified)	> 50 µM
N#CC1=C(N)Oc2c(c3nc4ccccc4nc3c3ccccc23)C12C(=O)N(Cc1cnnn1-c1cc(Cl)ccc1Cl)c1ccccc12 (stereo unspecified)	> 50 µM
Cc1ccccc1-n1nncc1CN1C(=O)C2(C(C#N)=C(N)Oc3c2c2nc4ccccc4nc2c2ccccc32)c2ccccc21 (stereo unspecified)	> 50 µM
N#CC1=C(N)Oc2c(c3nc4ccccc4nc3c3ccccc23)C12C(=O)N(Cc1cnnn1-c1cccc(S(N)(=O)=O)c1)c1ccccc12 (stereo unspecified)	> 50 µM
CCOc1ccc(-n2nncc2CN2C(=O)C3(C(C#N)=C(N)Oc4c(N)cc5nc6ccccc6nc5c43)c3ccccc32)cc1 (stereo unspecified)	> 50 µM
N#CC1=C(N)Oc2c(c3nc4ccccc4nc3c3ccccc23)C12C(=O)N(Cc1cnnn1-c1ccc(N)cc1)c1ccccc12 (stereo unspecified)	> 50 µM
Cc1cc(C)c(-n2nncc2CN2C(=O)C3(C(C#N)=C(N)Oc4c(N)cc5nc6ccccc6nc5c43)c3ccccc32)c(C)c1 (stereo unspecified)	> 50 µM
N#CC1=C(N)Oc2c(c3nc4ccccc4nc3c3ccccc23)C12C(=O)N(Cc1cnnn1-c1ccc([N+](=O)[O-])cc1)c1ccccc12 (stereo unspecified)	> 50 µM
N#CC1=C(N)Oc2c(N)cc3nc4ccccc4nc3c2C12C(=O)N(Cc1cnnn1-c1ccc(F)c(Cl)c1)c1ccccc12 (stereo unspecified)	> 50 µM

test system: HUVEC; assay: Antiproliferative activity against human HUVEC cells after 48 hrs by MTT assay; assay type: cell-based; conditions: not given

SMILES	IC50
Cc1cccc(-n2nncc2CN2C(=O)C3(C(C#N)=C(N)Oc4c3c3nc5ccccc5nc3c3ccccc43)c3ccccc32)c1 (stereo unspecified)	> 50 µM
COc1ccc(-n2nncc2CN2C(=O)C3(C(C#N)=C(N)Oc4c(N)cc5nc6ccccc6nc5c43)c3ccccc32)cc1 (stereo unspecified)	> 50 µM
CCOc1ccccc1-n1nncc1CN1C(=O)C2(C(C#N)=C(N)Oc3c2c2nc4ccccc4nc2c2ccccc32)c2ccccc21 (stereo unspecified)	> 50 µM
N#CC1=C(N)Oc2c(c3nc4ccccc4nc3c3ccccc23)C12C(=O)N(Cc1cnnn1-c1cc(Cl)ccc1Cl)c1ccccc12 (stereo unspecified)	> 50 µM
Cc1ccccc1-n1nncc1CN1C(=O)C2(C(C#N)=C(N)Oc3c2c2nc4ccccc4nc2c2ccccc32)c2ccccc21 (stereo unspecified)	> 50 µM
N#CC1=C(N)Oc2c(c3nc4ccccc4nc3c3ccccc23)C12C(=O)N(Cc1cnnn1-c1cccc(S(N)(=O)=O)c1)c1ccccc12 (stereo unspecified)	38.6 µM
CCOc1ccc(-n2nncc2CN2C(=O)C3(C(C#N)=C(N)Oc4c(N)cc5nc6ccccc6nc5c43)c3ccccc32)cc1 (stereo unspecified)	> 50 µM
N#CC1=C(N)Oc2c(c3nc4ccccc4nc3c3ccccc23)C12C(=O)N(Cc1cnnn1-c1ccc(N)cc1)c1ccccc12 (stereo unspecified)	> 50 µM
Cc1cc(C)c(-n2nncc2CN2C(=O)C3(C(C#N)=C(N)Oc4c(N)cc5nc6ccccc6nc5c43)c3ccccc32)c(C)c1 (stereo unspecified)	> 50 µM
N#CC1=C(N)Oc2c(c3nc4ccccc4nc3c3ccccc23)C12C(=O)N(Cc1cnnn1-c1ccc([N+](=O)[O-])cc1)c1ccccc12 (stereo unspecified)	> 50 µM
N#CC1=C(N)Oc2c(N)cc3nc4ccccc4nc3c2C12C(=O)N(Cc1cnnn1-c1ccc(F)c(Cl)c1)c1ccccc12 (stereo unspecified)	> 50 µM

test system: HCT-116; assay: Antiproliferative activity against human HCT116 cells after 48 hrs by MTT assay; assay type: functional, cell-based; conditions: HCT-116, 48 h

SMILES	IC50
COc1ccc(-n2nncc2CN2C(=O)C3(C(C#N)=C(N)Oc4c(N)cc5nc6ccccc6nc5c43)c3ccccc32)cc1 (stereo unspecified)	> 50 µM
CCOc1ccccc1-n1nncc1CN1C(=O)C2(C(C#N)=C(N)Oc3c2c2nc4ccccc4nc2c2ccccc32)c2ccccc21 (stereo unspecified)	> 50 µM
CCOc1ccc(-n2nncc2CN2C(=O)C3(C(C#N)=C(N)Oc4c(N)cc5nc6ccccc6nc5c43)c3ccccc32)cc1 (stereo unspecified)	> 50 µM
Cc1cc(C)c(-n2nncc2CN2C(=O)C3(C(C#N)=C(N)Oc4c(N)cc5nc6ccccc6nc5c43)c3ccccc32)c(C)c1 (stereo unspecified)	> 50 µM
N#CC1=C(N)Oc2c(N)cc3nc4ccccc4nc3c2C12C(=O)N(Cc1cnnn1-c1ccc(F)c(Cl)c1)c1ccccc12 (stereo unspecified)	> 50 µM

The remaining lines, values ahead:

IC50	SMILES
> 50 µM	Cc1cccc(-n2nncc2CN2C(=O)C3(C(C#N)=C(N)Oc4c3c3nc5ccccc5nc3c3ccccc43)c3ccccc32)c1 (stereo unspecified)
> 50 µM	N#CC1=C(N)Oc2c(c3nc4ccccc4nc3c3ccccc23)C12C(=O)N(Cc1cnnn1-c1cc(Cl)ccc1Cl)c1ccccc12 (stereo unspecified)
> 50 µM	Cc1ccccc1-n1nncc1CN1C(=O)C2(C(C#N)=C(N)Oc3c2c2nc4ccccc4nc2c2ccccc32)c2ccccc21 (stereo unspecified)
11.3 µM	N#CC1=C(N)Oc2c(c3nc4ccccc4nc3c3ccccc23)C12C(=O)N(Cc1cnnn1-c1cccc(S(N)(=O)=O)c1)c1ccccc12 (stereo unspecified)
45.2 µM	N#CC1=C(N)Oc2c(c3nc4ccccc4nc3c3ccccc23)C12C(=O)N(Cc1cnnn1-c1ccc(N)cc1)c1ccccc12 (stereo unspecified)
> 50 µM	N#CC1=C(N)Oc2c(c3nc4ccccc4nc3c3ccccc23)C12C(=O)N(Cc1cnnn1-c1ccc([N+](=O)[O-])cc1)c1ccccc12 (stereo unspecified)

test system: A549; assay: Antiproliferative activity against human A549 cells after 48 hrs by MTT assay; assay type: functional, cell-based; conditions: A549, 48 h

SMILES	IC50
COc1ccc(-n2nncc2CN2C(=O)C3(C(C#N)=C(N)Oc4c(N)cc5nc6ccccc6nc5c43)c3ccccc32)cc1 (stereo unspecified)	> 50 µM
CCOc1ccccc1-n1nncc1CN1C(=O)C2(C(C#N)=C(N)Oc3c2c2nc4ccccc4nc2c2ccccc32)c2ccccc21 (stereo unspecified)	> 50 µM
CCOc1ccc(-n2nncc2CN2C(=O)C3(C(C#N)=C(N)Oc4c(N)cc5nc6ccccc6nc5c43)c3ccccc32)cc1 (stereo unspecified)	> 50 µM
Cc1cc(C)c(-n2nncc2CN2C(=O)C3(C(C#N)=C(N)Oc4c(N)cc5nc6ccccc6nc5c43)c3ccccc32)c(C)c1 (stereo unspecified)	12.7 µM
N#CC1=C(N)Oc2c(N)cc3nc4ccccc4nc3c2C12C(=O)N(Cc1cnnn1-c1ccc(F)c(Cl)c1)c1ccccc12 (stereo unspecified)	43.4 µM

Other lines, results leading:

IC50	SMILES
39.6 µM	Cc1cccc(-n2nncc2CN2C(=O)C3(C(C#N)=C(N)Oc4c3c3nc5ccccc5nc3c3ccccc43)c3ccccc32)c1 (stereo unspecified)
> 50 µM	N#CC1=C(N)Oc2c(c3nc4ccccc4nc3c3ccccc23)C12C(=O)N(Cc1cnnn1-c1cc(Cl)ccc1Cl)c1ccccc12 (stereo unspecified)
> 50 µM	Cc1ccccc1-n1nncc1CN1C(=O)C2(C(C#N)=C(N)Oc3c2c2nc4ccccc4nc2c2ccccc32)c2ccccc21 (stereo unspecified)
44.2 µM	N#CC1=C(N)Oc2c(c3nc4ccccc4nc3c3ccccc23)C12C(=O)N(Cc1cnnn1-c1cccc(S(N)(=O)=O)c1)c1ccccc12 (stereo unspecified)
> 50 µM	N#CC1=C(N)Oc2c(c3nc4ccccc4nc3c3ccccc23)C12C(=O)N(Cc1cnnn1-c1ccc(N)cc1)c1ccccc12 (stereo unspecified)
> 50 µM	N#CC1=C(N)Oc2c(c3nc4ccccc4nc3c3ccccc23)C12C(=O)N(Cc1cnnn1-c1ccc([N+](=O)[O-])cc1)c1ccccc12 (stereo unspecified)

test system: HepG2; assay: Antiproliferative activity against human HepG2 cells after 48 hrs by MTT assay; assay type: functional, cell-based; conditions: HepG2, 48 h

SMILES	IC50
COc1ccc(-n2nncc2CN2C(=O)C3(C(C#N)=C(N)Oc4c(N)cc5nc6ccccc6nc5c43)c3ccccc32)cc1 (stereo unspecified)	> 50 µM
CCOc1ccccc1-n1nncc1CN1C(=O)C2(C(C#N)=C(N)Oc3c2c2nc4ccccc4nc2c2ccccc32)c2ccccc21 (stereo unspecified)	> 50 µM
CCOc1ccc(-n2nncc2CN2C(=O)C3(C(C#N)=C(N)Oc4c(N)cc5nc6ccccc6nc5c43)c3ccccc32)cc1 (stereo unspecified)	> 50 µM
Cc1cc(C)c(-n2nncc2CN2C(=O)C3(C(C#N)=C(N)Oc4c(N)cc5nc6ccccc6nc5c43)c3ccccc32)c(C)c1 (stereo unspecified)	48.1 µM
N#CC1=C(N)Oc2c(N)cc3nc4ccccc4nc3c2C12C(=O)N(Cc1cnnn1-c1ccc(F)c(Cl)c1)c1ccccc12 (stereo unspecified)	> 50 µM

Second part, the compound after the results:

IC50	SMILES
> 50 µM	Cc1cccc(-n2nncc2CN2C(=O)C3(C(C#N)=C(N)Oc4c3c3nc5ccccc5nc3c3ccccc43)c3ccccc32)c1 (stereo unspecified)
> 50 µM	N#CC1=C(N)Oc2c(c3nc4ccccc4nc3c3ccccc23)C12C(=O)N(Cc1cnnn1-c1cc(Cl)ccc1Cl)c1ccccc12 (stereo unspecified)
> 50 µM	Cc1ccccc1-n1nncc1CN1C(=O)C2(C(C#N)=C(N)Oc3c2c2nc4ccccc4nc2c2ccccc32)c2ccccc21 (stereo unspecified)
21.5 µM	N#CC1=C(N)Oc2c(c3nc4ccccc4nc3c3ccccc23)C12C(=O)N(Cc1cnnn1-c1cccc(S(N)(=O)=O)c1)c1ccccc12 (stereo unspecified)
> 50 µM	N#CC1=C(N)Oc2c(c3nc4ccccc4nc3c3ccccc23)C12C(=O)N(Cc1cnnn1-c1ccc(N)cc1)c1ccccc12 (stereo unspecified)
> 50 µM	N#CC1=C(N)Oc2c(c3nc4ccccc4nc3c3ccccc23)C12C(=O)N(Cc1cnnn1-c1ccc([N+](=O)[O-])cc1)c1ccccc12 (stereo unspecified)
